Reference: ChEMBL document CHEMBL1201862, “PubChem BioAssay data set” (2004)
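A five-concentration, 48-hour dose response in 96-well plates underlies each endpoint, interpolated linearly between surrounding concentrations. Here, GI50 denotes the concentration required for 50% inhibition of growth.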 Activity calls are given as the source filed them. Rule as the data show it: active = GI50 up to about 1.1 µM and inactive = higher.

Experiments:
Test in all cases: NCI anticancer screen, dose series, 48 h
HCT-116 = system: HCT-116
786-0 = system: 786-0
RPMI-8226 = system: RPMI-8226
NCI-H522 = system: NCI-H522
CCRF-CEM = system: CCRF-CEM
SR = system: SR
OVCAR-5 = system: OVCAR-5
MCF7 = system: MCF7
Hs-578T = system: Hs-578T
SF-539 = system: SF-539
SK-MEL-28 = system: SK-MEL-28
HOP-62 = system: HOP-62
SN12C = system: SN12C
SK-MEL-5 = system: SK-MEL-5
HL-60 = system: HL-60
NCI-H23 = system: NCI-H23
A549 = system: A549
Malme-3M = system: Malme-3M
HCC 2998 = system: HCC 2998
NCI-H226 = system: NCI-H226
MOLT-4 = system: MOLT-4
NCI-H460 = system: NCI-H460
TK-10 = system: TK-10
EKVX = system: EKVX
U-251 = system: U-251
HCT-15 = system: HCT-15
PC-3 = system: PC-3
HT-29 = system: HT-29
SW-620 = system: SW-620
ACHN = system: ACHN
OVCAR-3 = system: OVCAR-3
K562 = system: K562
A498 = system: A498
OVCAR-8 = system: OVCAR-8
SK-MEL-2 = system: SK-MEL-2
SF-295 = system: SF-295
UACC-257 = system: UACC-257
KM12 = system: KM12
SNB-75 = system: SNB-75
SF-268 = system: SF-268
MDA-MB-231 = system: MDA-MB-231
OVCAR-4 = system: OVCAR-4
NCI/ADR-RES = system: NCI/ADR-RES
MDA-N = system: MDA-N
UACC-62 = system: UACC-62
RXF 393 = system: RXF 393
T47D = system: T47D
M14 = system: M14
COLO 205 = system: COLO 205
LOX IMVI = system: LOX IMVI
DU-145 = system: DU-145
UO-31 = system: UO-31
SK-OV-3 = system: SK-OV-3
MDA-MB-435 = system: MDA-MB-435
SNB-19 = system: SNB-19
CAKI-1 = system: CAKI-1
IGROV-1 = system: IGROV-1

For Cc1ncc([N+](=O)[O-])n1CCn1ccnc1[N+](=O)[O-], the GI50 (HCT-116) was > 100 µM (inactive), the GI50 (786-0) was > 100 µM (inactive) and the GI50 (RPMI-8226) was > 100 µM (inactive). For the same molecule, the GI50 (NCI-H522) was > 100 µM (inactive), the GI50 (CCRF-CEM) was > 100 µM (inactive) and the GI50 (SR) was > 100 µM (inactive). The GI50 (OVCAR-5) was > 100 µM (inactive), the GI50 (MCF7) was > 100 µM (inactive) and the GI50 (Hs-578T) was > 100 µM (inactive). The GI50 (SF-539) was > 100 µM (inactive), the GI50 (SK-MEL-28) was > 100 µM (inactive) and the GI50 (HOP-62) was > 100 µM (inactive). For the same molecule, the GI50 (SN12C) was 61.7 µM (inactive), the GI50 (SK-MEL-5) was 38.3 µM (inactive) and the GI50 (HL-60) was > 100 µM (inactive). The GI50 (NCI-H23) was > 100 µM (inactive), the GI50 (A549) was 54.2 µM (inactive) and the GI50 (Malme-3M) was 72.1 µM (inactive). For the same molecule, the GI50 (HCC 2998) was > 100 µM (inactive), the GI50 (NCI-H226) was > 100 µM (inactive) and the GI50 (MOLT-4) was > 100 µM (inactive). The GI50 (NCI-H460) was > 100 µM (inactive), the GI50 (TK-10) was 15.7 µM (inactive) and the GI50 (EKVX) was 35.2 µM (inactive). For the same molecule, the GI50 (U-251) was > 100 µM (inactive), the GI50 (HCT-15) was over 100 µM and the GI50 (PC-3) was 80.9 µM (inactive). For the same molecule, the GI50 (HT-29) was > 100 µM (inactive), the GI50 (SW-620) was 74.6 µM (inactive) and the GI50 (ACHN) was > 100 µM (inactive). For the same molecule, the GI50 (OVCAR-3) was > 100 µM (inactive), the GI50 (K562) was > 100 µM (inactive) and the GI50 (A498) was 61.9 µM (inactive). For the same molecule, the GI50 (OVCAR-8) was 34.8 µM (inactive), the GI50 (SK-MEL-2) was 58.6 µM (inactive) and the GI50 (SF-295) was > 100 µM (inactive). For the same molecule, the GI50 (UACC-257) was > 100 µM (inactive), the GI50 (KM12) was > 100 µM (inactive) and the GI50 (SNB-75) was > 100 µM (inactive). The GI50 (SF-268) was > 100 µM (inactive).

For CCCCCCCCNC(=S)N/C=C1\C(=O)Oc2ccccc2C1=O, the GI50 (HCT-116) was 15.6 µM (inactive), the GI50 (MDA-MB-231) was 15.9 µM (inactive) and the GI50 (OVCAR-4) was 13.2 µM (inactive). For the same molecule, the GI50 (NCI/ADR-RES) was 19 µM (inactive), the GI50 (NCI-H522) was 7.19 µM (inactive) and the GI50 (CCRF-CEM) was 11.1 µM (inactive). The GI50 (OVCAR-5) was 12.6 µM (inactive), the GI50 (SF-539) was 17.6 µM (inactive) and the GI50 (SK-MEL-28) was 16.1 µM (inactive). The GI50 (MDA-N) was 18.1 µM (inactive), the GI50 (UACC-62) was 6.85 µM (inactive) and the GI50 (HOP-62) was 13.5 µM (inactive). The GI50 (SN12C) was 19.8 µM (inactive), the GI50 (SK-MEL-5) was 15.3 µM (inactive) and the GI50 (RXF 393) was 16 µM (inactive). The GI50 (NCI-H23) was 21.1 µM (inactive), the GI50 (A549) was 17.2 µM (inactive) and the GI50 (T47D) was 65.8 µM (inactive). The GI50 (HCC 2998) was 11.4 µM (inactive), the GI50 (NCI-H226) was 23.8 µM (inactive) and the GI50 (MOLT-4) was 12.4 µM (inactive). For the same molecule, the GI50 (NCI-H460) was 14.4 µM (inactive), the GI50 (EKVX) was 28.2 µM (inactive) and the GI50 (HCT-15) was 12.2 µM. The GI50 (PC-3) was 14.4 µM (inactive), the GI50 (ACHN) was 14.8 µM (inactive) and the GI50 (OVCAR-3) was 12.6 µM (inactive). For the same molecule, the GI50 (K562) was 16.3 µM (inactive), the GI50 (M14) was 19.3 µM (inactive) and the GI50 (COLO 205) was 15 µM (inactive). The GI50 (A498) was 16 µM (inactive), the GI50 (OVCAR-8) was 19.5 µM (inactive) and the GI50 (SK-MEL-2) was 22.5 µM (inactive). The GI50 (SF-295) was 14.1 µM (inactive), the GI50 (UACC-257) was 19.1 µM (inactive) and the GI50 (KM12) was 13.6 µM (inactive). For the same molecule, the GI50 (LOX IMVI) was 7.05 µM (inactive), the GI50 (DU-145) was 19.2 µM (inactive) and the GI50 (SNB-75) was 14.2 µM (inactive). The GI50 (SF-268) was 10 µM (inactive).

C=CCOC(=O)Cn1cnc2c(N)ncnc21 was tested, and the GI50 (HCT-116) was > 100 µM (inactive), the GI50 (MDA-MB-231) was > 100 µM (inactive) and the GI50 (786-0) was > 100 µM (inactive). For the same molecule, the GI50 (OVCAR-4) was > 100 µM (inactive), the GI50 (NCI/ADR-RES) was > 100 µM (inactive) and the GI50 (UO-31) was > 100 µM (inactive). For the same molecule, the GI50 (RPMI-8226) was > 100 µM (inactive), the GI50 (SK-OV-3) was > 100 µM (inactive) and the GI50 (CCRF-CEM) was > 100 µM (inactive). The GI50 (SR) was > 100 µM (inactive), the GI50 (MCF7) was > 100 µM (inactive) and the GI50 (Hs-578T) was > 100 µM (inactive). The GI50 (SF-539) was > 100 µM (inactive), the GI50 (SK-MEL-28) was > 100 µM (inactive) and the GI50 (MDA-N) was > 100 µM (inactive). The GI50 (UACC-62) was > 100 µM (inactive), the GI50 (HOP-62) was > 100 µM (inactive) and the GI50 (SN12C) was > 100 µM (inactive). The GI50 (SK-MEL-5) was > 100 µM (inactive), the GI50 (HL-60) was > 100 µM (inactive) and the GI50 (NCI-H23) was > 100 µM (inactive). The GI50 (A549) was > 100 µM (inactive), the GI50 (T47D) was > 100 µM (inactive) and the GI50 (Malme-3M) was > 100 µM (inactive). The GI50 (HCC 2998) was > 100 µM (inactive), the GI50 (NCI-H226) was > 100 µM (inactive) and the GI50 (MDA-MB-435) was > 100 µM (inactive). The GI50 (MOLT-4) was > 100 µM (inactive), the GI50 (SNB-19) was > 100 µM (inactive) and the GI50 (NCI-H460) was > 100 µM (inactive). For the same molecule, the GI50 (TK-10) was > 100 µM (inactive), the GI50 (EKVX) was > 100 µM (inactive) and the GI50 (CAKI-1) was > 100 µM (inactive). The GI50 (U-251) was > 100 µM (inactive), the GI50 (HCT-15) was over 100 µM and the GI50 (PC-3) was > 100 µM (inactive). The GI50 (HT-29) was > 100 µM (inactive), the GI50 (SW-620) was > 100 µM (inactive) and the GI50 (ACHN) was > 100 µM (inactive). For the same molecule, the GI50 (K562) was > 100 µM (inactive), the GI50 (M14) was > 100 µM (inactive) and the GI50 (COLO 205) was > 100 µM (inactive). The GI50 (A498) was > 100 µM (inactive), the GI50 (OVCAR-8) was > 100 µM (inactive) and the GI50 (IGROV-1) was > 100 µM (inactive). The GI50 (SK-MEL-2) was > 100 µM (inactive), the GI50 (SF-295) was > 100 µM (inactive) and the GI50 (UACC-257) was > 100 µM (inactive). The GI50 (KM12) was > 100 µM (inactive), the GI50 (LOX IMVI) was > 100 µM (inactive) and the GI50 (DU-145) was > 100 µM (inactive). The GI50 (SNB-75) was > 100 µM (inactive) and the GI50 (SF-268) was > 100 µM (inactive).
